These results are taken from patent US20150291597A1, “NOVEL ORALLY BIOAVAILABLE BREATHING CONTROL MODULATING COMPOUNDS, AND METHODS OF USING SAME” (Galleon Pharmaceuticals, Inc., priority 2012, published 2015).

Structures can show the parent of a compound that is named as a salt.

The subject of one data set is anesthetized rats. Description: Anesthetized rat spirometry screening assay (respiratory rate, tidal volume, minute volume; IV bolus). The class given is in vivo. Conditions: 0.3 mg/kg IV bolus. An excerpt:
Anesthetized rats provide a quick method of screening compounds for respiratory and cardiovascular activity. In contrast to the conscious rat model, this model offers an experimental set up with less variation in the baseline cardiovascular and respiratory measures. Compounds screened in this assay may be examined in a conscious rat model.
Rats were initially anesthetized with 3% isoflurane (inhaled) and femoral artery and vein cannulas were surgically inserted. Once cannulated, the rats were transitioned to urethane anesthesia (1.5 g/kg; i.v.) and a tracheal cut-down was performed. After placing the tracheal cannula, it was connected to a pneumotach to record respiratory airflow from which respiratory rate (RR), tidal volume (VT), and their product minute volume were derived. After the surgical preparation was complete, animals were allowed to stabilize for 30 minutes while respiratory rate, tidal volume, minute volume, blood pressure and heart rate were recorded continuously. Arterial blood gases (ABG) were obtained from arterial blood collected from the femoral artery. ABG measurements were taken before and 6 minutes after vehicle and each dose of compound administered. Compounds being screened were administered via bolus injections through the venous cannula followed by a saline flush (total time of administration is approximately 30 seconds), and the animal was monitored for at least 6 minutes for changes in cardiovascular efforts. Compounds were prepared in formulations identified to ensure optimal solubility. As such, vehicle controls were matched for the formulation of each compound tested. Dosing of the compound being screened was 0.1 and 0.3 mg/kg. The next dose was not administered until all cardiovascular and respiratory measures had returned to baseline levels. The positive control compounds used were N-[4,6-di-(n-propylamino)-[1,3,5]triazin-2-yl]-O,N-dimethyl-hydroxylamine or N-[2,6-di-(n-propylamino)-[1,3]pyrimidin-4-yl]-O,N-dimethyl-hydroxylamine, both administered at the end of each screening experiment (0.3 mg/kg dose) to validate the experiment and also to serve as a measure with which the compound being screened could be compared.
Data were analyzed by collecting cardiovascular and respiratory data in 30 second averages (BINs). Data were plotted 2 minutes before challenge and then 6 minutes after challenge.
FIGS. 2A-2F summarize the effects of individual compounds on peak minute ventilation (increase in VE), overall increase in 2 minute area under the curve (AUC) which is a cumulative measure of effect, along with compound stability (half-life) in rat and human microsomes.

Data set [1] can be described thus: Solubility of cyanuric chloride in various solvents. Format: physicochemical. Conditions: 10 g in 50 mL, sonicated 1 h. As to the method:
The solubility of cyanuric chloride was examined as a way to limit its reactivity and the formation of undesired by-products. Cyanuric chloride (10 g) was mixed with 50 mL of indicated solvent (Table 22) and sonicated for 1 h with occasional swirling. If solid material remained as a suspension, it was filtered off and weighed.

As usually defined, the melting point is the temperature, or range, at which the solid turns liquid. In the case of `C#CCNc1nc(N(C)OC)c2cc[nH]c2n1.Cl`, the melting point lay within 182 to 184 °C.

The compound `C#CCN(OC)c1nc(NCCC)nc(NCCC)n1.Cl` had a melting point of 110 to 113 °C.

With `C#CCON(C)c1nc(NCCC)nc(NCCC)n1.Cl`, the melting point lay within 105 to 107 °C.

`C#CCNc1nc(NCCC)nc(N(C)OCC#C)n1.Cl`: the melting point lay within 84 to 86 °C.

Consider `C#CCNc1nc(NCCC)nc(N(C)OC)n1`, for which the melting point lay in the range of 79 to 81 °C.

`C#CCNc1nc(NCCC)nc(N(C)OC)n1.O=C(O)/C=C\C(=O)O`: the melting point was 123 to 125 °C.

In turn, `C#CCNc1nc(NCCC)nc(N(C)OC)n1.O=C(O)CC(=O)O` had a melting point of 113 to 115 °C.

The compound `C#CCNc1nc(NCCC)nc(N(C)OC)n1.O=C(O)/C=C/C(=O)O` came in with a melting point of 153 to 155 °C.

Compound `C#CCNc1nc(NC2CCC2)nc(N(C)OC)n1.Cl` came in with a melting point of 105 to 107 °C.

As for `C#CCNc1nc(NC)nc(NCCC)n1.Cl` [Compound 7a, N-Methyl-N′-n-propyl-N″-prop-2-ynyl-[1,3,5]triazine-2,4,6-triamine hydrochloride], in the data set with anesthetized rats, the “duration of the increase in minute ventilation” value is on record as “approximately 2 minutes”, the “increase in minute ventilation above baseline values” is “up to 85%”, the “increase in respiratory rate” value was “up to 46%” and the “increase in tidal volume” value is recorded as “up to 27%”.

With `C#CCNc1nc(NCCC)nc(N(Cc2ccc(F)cc2)OC)n1` [Compound 9a, N-(4-Fluorobenzyl)-O-methyl-N-[4-(n-propylamino)-6-(prop-2-ynylamino)-[[1,3,5]triazin-2-yl]-hydroxylamine hydrochloride], in the data set with anesthetized rats, the “duration of the increase in minute ventilation” value was “approximately 2 minutes”, the “increase in minute ventilation above baseline values” is reported as “up to 110%”, the “increase in respiratory rate” value is listed as “up to 24%” and the “increase in tidal volume” value is “up to 72%”.

Turning to `C#CCNc1nc(N)nc(N(C)OC)n1` [Compound 132, N-(4-Amino-6-prop-2-ynylamino-[1,3,5]triazin-2-yl)-O,N-dimethyl-hydroxylamine], the melting point was in the range of 172 to 174 °C.

Regarding `Clc1nc(Cl)nc(Cl)n1` [cyanuric chloride], the “Solubility of cyanuric chloride” value was “partial crystallization” in data set [1] (Acetone, 0 °C); “soluble” in data set [1] (Acetone, r.t.); “soluble” in data set [1] (DMAc, 0 °C); “soluble” in data set [1] (DMAc, r.t.); “decomposition” in data set [1] (DMF, 0 °C); “decomposition” in data set [1] (DMF, r.t.). In addition, the “Solubility of cyanuric chloride” value is given as “decomposition” in data set [1] (DMSO, 0 °C); “decomposition” in data set [1] (DMSO, r.t.); “soluble” in data set [1] (Dioxane, 0 °C); “soluble” in data set [1] (Dioxane, r.t.); “insoluble” in data set [1] (IPA, 0 °C); “insoluble” in data set [1] (MeCN, 0 °C). Besides, the “Solubility of cyanuric chloride” value in data set [1] (MeCN, r.t.) was 150 µg/mL; in data set [1] (THF, 0 °C) it was “soluble”; in data set [1] (THF, r.t.) it was “soluble”; in data set [1] (Toluene, 0 °C), “soluble”; in data set [1] (Toluene, r.t.), “soluble”.
